System: PAXF1657 control empty vector cell line
Assay: 7-day proliferation assay, PAXF1657 control empty vector cell line (Example 9)
Type: cell-based
Settings: 168 h; Cell Line: PAXF1657 empty vector (EV) cell line; 7-day; read-out: C: 7-day proliferation assay: IC50 GeoMean
Procedure: In order to identify compounds specific for GRK2, we generated two isogenic cell line pairs of the pancreatic cancer cell line PAXF1657, a pair of cells stably overexpressing GRK2 cDNA or the control empty vector and a cell line pair of PAXF1657 GRK2 knockout clonal cells versus non-targeting control clonal cells.
Proliferation Assay: Cellular anti-proliferative activity of compounds was assessed by using the pancreatic cancer cell line, PAXF1657, stably overexpressing GRK2 cDNA or the control empty vector, as well as the parental urinary bladder cancer cell line, 5637. In addition, we also took advantage of GRK2 knockout cell lines that were generated via CRISPR. Cell lines were seeded into tissue culture treated, white-walled, 96-well plates at a density of 500 cells/well in RPMI1640 media supplemented with 10% H.I. FBS and penicillin/streptomycin. Plates were incubated overnight at 37° C., 5% CO2 to allow cells to adhere to the wells. GRK2 inhibitors were added to the cells using a 10-point dilution series with a final concentration ranging from 30 μM-0.0002 μM in 0.3% DMSO. At the time of compound addition, a set of plates, that were not treated with compounds, were collected and cell viability was measured using CellTiter-Glo (Promega). CellTiter-Glo reagent was added to the designed plates and luminescence was measuring using a Biotek Synergy plate reader. The compound treated cells were incubated for 3 days at 37° C., 5% CO2. The media was then aspirated from each well and replaced with fresh media containing GRK2 inhibitors. The compound treated cells were then incubated for an additional 4 days at 37° C., 5% CO2. Cell viability was assessed and at end of the 7-day compound treatment by CellTiterGlo.

SMILES | IC50 [µM]
Cn1c(CNc2cccc(C(=O)NCc3ccccc3C(F)(F)F)c2)nnc1-c1ccncn1 | 1.15
Cn1c(CNc2cccc(C(=O)NCc3cccc(CN4CCOCC4)c3)c2)nnc1-c1ccncn1 | > 10
Cn1c(CNc2cccc(C(=O)NC3(c4cccnc4)CCC3)c2)nnc1-c1ccncn1 | > 10
Cc1nc(CNC(=O)c2cccc(NCc3nnc(-c4ccncn4)n3C)c2)c[nH]1 | > 10
Cn1c(CNc2cccc(C(=O)NC3(c4nccs4)CCCC3)c2)nnc1-c1ccncn1 | > 10
Cn1c(CNc2cccc(C(=O)NCc3ncoc3C(F)(F)F)c2)nnc1-c1ccncn1 | > 10
CCOc1ncccc1CNC(=O)c1cccc(NCc2nnc(-c3ccncn3)n2C)c1 | 3.61
C[C@H](NC(=O)c1cccc(NCc2nnc(-c3ccncn3)n2C)c1)c1ccccn1 | 2.58
Cn1c(CNc2cccc(C(=O)NCc3cncs3)c2)nnc1-c1ccncn1 | > 10
Cc1cccc(CNC(=O)c2cccc(NCc3nnc(-c4ccncn4)n3C)c2)n1 | 3.92
Cn1cc(C(C)(C)NC(=O)c2cccc(NCc3nnc(-c4ccncn4)n3C)c2)cn1 | > 10
Cc1csc(C(C)(C)NC(=O)c2cccc(NCc3nnc(-c4ccncn4)n3C)c2)n1 | > 10
CC[C@H](NC(=O)c1cccc(NCc2nnc(-c3ccncn3)n2C)c1)c1ccccn1 | > 10
COCc1cccc(CNC(=O)c2cccc(NCc3nnc(-c4ccncn4)n3C)c2)c1 | 2.53
Cn1c(CNc2cccc(C(=O)NCc3ccccc3-n3cncn3)c2)nnc1-c1ccncn1 | > 10
CCn1nc(C)c(CNC(=O)c2cccc(NCc3nnc(-c4ccncn4)n3C)c2)n1 | 0.555
Cn1nccc1C(NC(=O)c1cccc(NCc2nnc(-c3ccncn3)n2C)c1)c1ccccc1 (stereo not drawn) | > 10
CC(C)n1ncnc1CNC(=O)c1cccc(NCc2nnc(-c3ccncn3)n2C)c1 | > 10
C[C@H](NC(=O)c1cccc(NCc2nnc(-c3ccncn3)n2C)c1)c1ncccc1F | 0.738
CC(C)n1nccc1CNC(=O)c1cccc(NCc2nnc(-c3ccncn3)n2C)c1 | > 10
COc1ccccc1C1(NC(=O)c2cccc(NCc3nnc(-c4ccncn4)n3C)c2)CC1 | > 10
Cn1c(CNc2cccc(C(=O)NCc3nc(C4CC4)cs3)c2)nnc1-c1ccncn1 | 2.6

SMILES | IC50 [µM]
CC(NC(=O)c1cccc(NCc2nnc(-c3ccncn3)n2C)c1)c1ccon1 (stereo not drawn) | > 10
Cn1c(CNc2cccc(C(=O)NCc3cncc(F)c3)c2)nnc1-c1ccncn1 | > 10
CCN(CC)Cc1ccccc1CNC(=O)c1cccc(NCc2nnc(-c3ccncn3)n2C)c1 | > 10
CC(C)C(NC(=O)c1cccc(NCc2nnc(-c3ccncn3)n2C)c1)c1nncn1C (stereo not drawn) | > 10
CC(C)Oc1ncccc1CNC(=O)c1cccc(NCc2nnc(-c3ccncn3)n2C)c1 | 2.36
Cn1c(CNc2cccc(C(=O)NCc3ccn(C4CCCC4)n3)c2)nnc1-c1ccncn1 | > 10
CC(C)Cn1nccc1CNC(=O)c1cccc(NCc2nnc(-c3ccncn3)n2C)c1 | 2.01
Cn1c(CNc2cccc(C(=O)NCc3cc(C(C)(C)C)ccn3)c2)nnc1-c1ccncn1 | 2.67
COc1ccc(CNC(=O)c2cccc(NCc3nnc(-c4ccncn4)n3C)c2)nc1 | > 10
CCN(CC)C(=O)C(NC(=O)c1cccc(NCc2nnc(-c3ccncn3)n2C)c1)c1ccccc1 (stereo not drawn) | > 10
Cn1c(CNc2cccc(C(=O)NCc3ccccn3)c2)nnc1-c1ccncn1 | > 10
Cc1cc(CNC(=O)c2cccc(NCc3nnc(-c4ccncn4)n3C)c2)ccn1 | > 10
Cn1c(CNc2cccc(C(=O)NC3(c4ccccn4)CC3)c2)nnc1-c1ccncn1 | 2.03
CN1CCN(c2nccc(CNC(=O)c3cccc(NCc4nnc(-c5ccncn5)n4C)c3)n2)CC1 | > 10
Cn1c(CNc2cccc(C(=O)NCc3ccc(Cn4cncn4)cc3)c2)nnc1-c1ccncn1 | > 10
Cn1c(CNc2cccc(C(=O)NCc3cc4n(n3)CCCC4)c2)nnc1-c1ccncn1 | 2.21
Cn1cc(C(NC(=O)c2cccc(NCc3nnc(-c4ccncn4)n3C)c2)c2ccc(F)cc2)cn1 (stereo not drawn) | > 10
Cc1ncc(CNC(=O)c2cccc(NCc3nnc(-c4ccncn4)n3C)c2)s1 | > 10
CCc1cc(CNC(=O)c2cccc(NCc3nnc(-c4ccncn4)n3C)c2)no1 | 3.55
Cn1c(CNc2cccc(C(=O)NCc3nc4ccccc4o3)c2)nnc1-c1ccncn1 | > 10
C[C@H](NC(=O)c1cccc(NCc2nnc(-c3ccncn3)n2C)c1)c1cnccn1 | 1.51
Cn1c(CNc2cccc(C(=O)NC(c3ncccn3)C(C)(C)C)c2)nnc1-c1ccncn1 (stereo not drawn) | > 10

SMILES | IC50 [µM]
Cc1ccnc(C(C)NC(=O)c2cccc(NCc3nnc(-c4ccncn4)n3C)c2)n1 (stereo not drawn) | > 10
C[C@H](NC(=O)c1cccc(NCc2nnc(-c3ccncn3)n2C)c1)c1ccnn1C | > 10
COCC(C)(NC(=O)c1cccc(NCc2nnc(-c3ccncn3)n2C)c1)c1ccccc1 (stereo not drawn) | 0.88
Cn1c(CNc2cccc(C(=O)NC(C)(C)c3ncccn3)c2)nnc1-c1ccncn1 | > 10
Cn1c(CNc2cccc(C(=O)NC3(c4ccccn4)CCC3)c2)nnc1-c1ccncn1 | > 10
Cn1c(CNc2cccc(C(=O)NC3(c4ccc(F)cn4)CC3)c2)nnc1-c1ccncn1 | 0.291
Cc1nc(C2(NC(=O)c3cccc(NCc4nnc(-c5ccncn5)n4C)c3)CC2)cs1 | 4.74
Cn1c(CNc2cccc(C(=O)NCc3nncn3C3CC3)c2)nnc1-c1ccncn1 | > 10
Cn1c(CNc2cccc(C(=O)NCc3cccc(C(F)(F)F)n3)c2)nnc1-c1ccncn1 | 1.86
CCC(NC(=O)c1cccc(NCc2nnc(-c3ccncn3)n2C)c1)c1ncccn1 (stereo not drawn) | 5.39
Cc1nc2n(n1)CCCC2NC(=O)c1cccc(NCc2nnc(-c3ccncn3)n2C)c1 (stereo not drawn) | > 10
Cn1c(CNc2cccc(C(=O)N[C@H]3c4ccccc4CC[C@H]3O)c2)nnc1-c1ccncn1 | > 10
Cn1c(CNc2cccc(C(=O)NC3CCCc4ncccc43)c2)nnc1-c1ccncn1 (stereo not drawn) | 2.5
CC1CC(NC(=O)c2cccc(NCc3nnc(-c4ccncn4)n3C)c2)c2ncnn21 (stereo not drawn) | > 10
Cn1c(CNc2cccc(C(=O)N[C@H]3CCOc4c(F)cc(F)cc43)c2)nnc1-c1ccncn1 | > 10
Cn1c(CNc2cccc(C(=O)NC(CO)c3cccc(F)c3)c2)nnc1-c1ccncn1 (stereo not drawn) | 2.48
CC(O)C(NC(=O)c1cccc(NCc2nnc(-c3ccncn3)n2C)c1)c1ccccc1 (stereo not drawn) | 1.76
Cn1c(CNc2cccc(C(=O)NCc3ccc(-n4cncn4)cc3)c2)nnc1-c1ccncn1 | > 10
CC(NC(=O)c1cccc(NCc2nnc(-c3ccncn3)n2C)c1)c1nccn1-c1ccccc1 (stereo not drawn) | > 10
COc1cnccc1CNC(=O)c1cccc(NCc2nnc(-c3ccncn3)n2C)c1 | > 10
Cn1c(CNc2cccc(C(=O)NCc3ccncc3)c2)nnc1-c1ccncn1 | > 10
CC(NC(=O)c1cccc(NCc2nnc(-c3ccncn3)n2C)c1)c1ccn[nH]1 (stereo not drawn) | > 10

SMILES | IC50 [µM]
Cn1c(CNc2cccc(C(=O)NCc3ccc4c(c3)CNC4=O)c2)nnc1-c1ccncn1 | > 10
CNc1cc(CNC(=O)c2cccc(NCc3nnc(-c4ccncc4)[nH]3)c2)ccn1 | > 10
Cn1c(CNC(=O)c2cccc(NCc3nnc(-c4ccncc4)[nH]3)c2)nnc1C1CC1 | > 10
CC(C)n1ncnc1CNC(=O)c1cccc(NCc2nnc(-c3ccncc3)[nH]2)c1 | > 10
O=C(NCc1nccn1CC(F)(F)F)c1cccc(NCc2nnc(-c3ccncc3)[nH]2)c1 | > 10
O=C(NC1(c2cccnc2)CC1)c1cccc(NCc2nnc(-c3ccncc3)[nH]2)c1 | > 10
O=C(NCc1nnc2n1CCCCC2)c1cccc(NCc2nnc(-c3ccncc3)[nH]2)c1 | > 10
O=C(NC1(c2ccncc2)CC1)c1cccc(NCc2nnc(-c3ccncc3)[nH]2)c1 | > 10
O=C(NCCc1ncccn1)c1cccc(NCc2nnc(-c3ccncc3)[nH]2)c1 | > 10
Cn1cc2c(n1)CCCC2NC(=O)c1cccc(NCc2nnc(-c3ccncc3)[nH]2)c1 (stereo not drawn) | > 10
Cc1cc(CNC(=O)c2cccc(NCc3nnc(-c4ccncc4)[nH]3)c2)ccn1 | > 10
Cc1nc(C)c(CNC(=O)c2cccc(NCc3nnc(-c4ccncc4)[nH]3)c2)o1 | > 10
CCn1nc(C)c(CNC(=O)c2cccc(NCc3nnc(-c4ccncc4)[nH]3)c2)c1C | > 10
O=C(NC[C@H]1COCCO1)c1cccc(NCc2nnc(-c3ccncc3)[nH]2)c1 | 1.12
O=C(NCc1ccncc1OCC(F)F)c1cccc(NCc2nnc(-c3ccncc3)[nH]2)c1 | > 10
O=C(NC1(c2ncccn2)CC1)c1cccc(NCc2nnc(-c3ccncc3)[nH]2)c1 | > 10
CCn1nnc(C)c1CNC(=O)c1cccc(NCc2nnc(-c3ccncc3)[nH]2)c1 | 0.651
COc1ccc2c(c1)OCC[C@@H]2NC(=O)c1cccc(NCc2nnc(-c3ccncn3)n2C)c1 | 10.1
COc1ccccc1[C@@H](NC(=O)c1cccc(NCc2nnc(-c3ccncn3)n2C)c1)c1nccn1C | 78.2
[2H]C([2H])(Nc1cccc(C(=O)N[C@@H]2COCc3ccccc32)c1)c1nnc(-c2ccncn2)n1C | 0.116
[2H]C([2H])(Nc1cccc(C(=O)N[C@@H]2CCOc3cccnc32)c1)c1nnc(-c2ccncn2)n1C | 0.274

Source: patent US20230009608A1, “GRK2 INHIBITORS AND USES THEREOF” (Cygnal Therapeutics, Inc., priority 2020, published 2023)
